Key:
[1] = tested on: HepG2; experiment: Cytotoxicity against human HepG2 cells assessed as cell viability incubated for 72 hrs by MTT assay; format: toxicity, cell-based; settings: hepg2
[2] = in vitro; settings: human
Description: Selectivity index, ratio of IC50 for cytotoxicity against human HepG2 cells assessed as cell viability to IC50 for antiplasmodial activity against asexual erythrocytic stage of Plasmodium falciparum D6 assessed as inhibition of parasitic growth incubated

[3] = tested on: Plasmodium falciparum; experiment: microbe, parasite or virus in culture; settings: D6, 72 h
[4] = tested on: Plasmodium falciparum; experiment: microbe, parasite or virus in culture; settings: Dd2, 72 h
[5] = tested on: Plasmodium yoelii; experiment: Antiplasmodial activity against asexual erythrocytic stage of Plasmodium yoelii infected in female CFI mouse model assessed as reduction in parasitemia at 25 mg/kg, po administered once daily for 4 days and measured on day 5 by Giemsa staining based microscopic analysis relative to control; format: functional; parameters: scale not given: the % may be the effect or the level left; settings: time 5 day
[6] = tested on: Plasmodium falciparum; experiment: microbe, parasite or virus in culture; settings: Tm90-C2B, 72 h
[7] = Metabolic stability in human liver microsomes assessed as intrinsic clearance measured upto 60 mins LC-MS analysis
[8] = Metabolic stability in mouse liver microsomes assessed as intrinsic clearance measured upto 60 mins LC-MS analysis
[9] = Metabolic stability in mouse liver microsomes assessed as half life measured upto 60 mins LC-MS analysis
[10] = Aqueous solubility of compound in PBS buffer at pH 7.4 incubated for 90 mins by UV-vis spectroscopic analysis; settings: pH 7.4, 1.5 h
[11] = Metabolic stability in human liver microsomes assessed as half life measured upto 60 mins LC-MS analysis

SMILES	IC50 [3]	IC50 [4]	IC50 [6]	microsomal CLint at 1 h [7]	microsomal CLint at 1 h [8]	half-life at 1 h [9]	solubility [10]	half-life at 1 h [11]	IC50 [1]	selectivity ratio [2]	Activity [5]
COC1=CC(c2ccc[nH]2)=N/C1=C\NCC(C)C	112 nM	92.8 nM	103 nM	–	–	–	–	–	19100 nM	170	18.2%
CC(C)CN/C=C1\N=C(c2ccc[nH]2)C=C1OCc1ccccc1.Cl	48.7 nM	58 nM	52.1 nM	–	–	–	–	–	8860 nM	182	0%
CCCCCCCCCCCCN/C=C1\N=C(c2ccc[nH]2)C=C1Oc1ccc(Cl)cc1	> 2500 nM	> 2500 nM	> 2500 nM	–	–	–	–	–	–	–	–
CCOC1=CC(c2ccc[nH]2)=N/C1=C\NCC(C)C.Cl	30 nM	46.7 nM	41.6 nM	–	–	–	–	–	4620 nM	154	0%
CCCCCCCCCCCCN/C=C1\N=C(c2ccc[nH]2)C=C1OC	65.9 nM	69.9 nM	96.9 nM	–	–	–	–	–	6100 nM	93	–
CCCCCCCCCCCc1ccc(/C=C2\N=C(c3ccc[nH]3)C=C2Oc2ccc(OC(F)(F)F)cc2)[nH]1	> 2500 nM	> 2500 nM	> 2500 nM	–	–	–	–	–	–	–	–
CC(C)OC1=CC(c2ccc[nH]2)=N/C1=C\NC12CC3CC(CC(C3)C1)C2.Cl	1.78 nM	2 nM	2.05 nM	97.6 µL/min/mg	44.8 µL/min/mg	30.9 min	78 µM	14.2 min	1270 nM	715	74.1%
CCCCCCCCCCCCN/C=C1\N=C(c2ccc[nH]2)C=C1OCc1ccc(Cl)cc1	410 nM	340 nM	305 nM	–	–	–	–	–	–	–	–
CC(C)CN/C=C1\N=C(c2ccc[nH]2)C=C1OC(C)C.Cl	–	37.7 nM	34.2 nM	–	–	–	–	–	7420 nM	201	0%
CCCCCCCCCCCCN/C=C1\N=C(c2ccc[nH]2)C=C1OCCC.Cl	32.8 nM	44.2 nM	39 nM	–	–	–	–	–	4440 nM	135	16.4%
CCCCCCCCCCCCN/C=C1\N=C(c2ccc[nH]2)C=C1OCC.Cl	11.1 nM	9.68 nM	12.7 nM	–	–	–	–	–	4350 nM	391	0%
CCCCCCCCCCCc1ccc(/C=C2\N=C(c3ccc[nH]3)C=C2OCc2ccc(Cl)cc2)[nH]1	–	939 nM	1850 nM	–	–	–	–	–	–	–	–
CCCCCCCCCCCCN/C=C1\N=C(c2ccc[nH]2)C=C1OC(C)C.Cl	29.7 nM	37.5 nM	37.2 nM	–	–	–	–	–	3070 nM	103	0%
CCCCCCCCCCCCN/C=C1\N=C(c2ccc[nH]2)C=C1Oc1ccccc1	> 2500 nM	> 2500 nM	> 2500 nM	–	–	–	–	–	–	–	–
OC(c1cc(C(F)(F)F)nc2c(C(F)(F)F)cccc12)C1CCCCN1 (stereo unspecified) [MEFLOQUINE]	–	–	–	–	–	–	–	–	13700 nM	–	–
CCCCCCCCCCCCN/C=C1\N=C(c2ccc[nH]2)C=C1OCc1ccccc1.Cl	–	60.2 nM	54.6 nM	–	–	–	–	–	7740 nM	144	0%
CCCCCCCCCCCc1ccc(/C=C2\N=C(c3ccc[nH]3)C=C2Oc2ccc(Cl)cc2)[nH]1	1320 nM	1400 nM	2300 nM	–	–	–	–	–	–	–	–
CCCOC1=CC(c2ccc[nH]2)=N/C1=C\NCC(C)C.Cl	20.9 nM	15.5 nM	23.1 nM	–	–	–	–	–	7630 nM	365	75.4%

More lines, main results first:

IC50 [3]	IC50 [4]	IC50 [6]	microsomal CLint at 1 h [7]	microsomal CLint at 1 h [8]	half-life at 1 h [9]	solubility [10]	half-life at 1 h [11]	SMILES	IC50 [1]	selectivity ratio [2]	Activity [5]
> 2500 nM	> 2500 nM	> 2500 nM	–	–	–	–	–	CCCCCCCCCCCc1ccc(/C=C2\N=C(c3ccc[nH]3)C=C2OCc2ccc(OC(F)(F)F)cc2)[nH]1	–	–	–
2.01 nM	1.82 nM	2.43 nM	30.6 µL/min/mg	24.6 µL/min/mg	56.4 min	< 3.125 µM	45.4 min	Cl.FC(F)(F)Oc1ccc(COC2=CC(c3ccc[nH]3)=N/C2=C\NC23CC4CC(CC(C4)C2)C3)cc1	3740 nM	1860	81.8%
> 2500 nM	> 2500 nM	> 2500 nM	–	–	–	–	–	CCCCCCCCCCCCN/C=C1\N=C(c2ccc[nH]2)C=C1Oc1ccc(OC(F)(F)F)cc1	–	–	–
25.9 nM	22 nM	17.7 nM	40 µL/min/mg	18.9 µL/min/mg	> 60 min	7.88 µM	34.7 min	C1=C(Oc2ccccc2)/C(=C/NC23CC4CC(CC(C4)C2)C3)N=C1c1ccc[nH]1.Cl	8570 nM	331	>99%
> 2500 nM	> 2500 nM	> 2500 nM	–	–	–	–	–	CC(C)CN/C=C1\N=C(c2ccc[nH]2)C=C1Oc1ccc(Cl)cc1	–	–	–
–	1690 nM	884 nM	–	–	–	–	–	CC(C)CN/C=C1\N=C(c2ccc[nH]2)C=C1Oc1ccccc1	–	–	–
52.8 nM	22 nM	28.3 nM	6.72 µL/min/mg	2.1 µL/min/mg	> 60 min	–	> 60 min	Cl.Clc1ccc(OC2=CC(c3ccc[nH]3)=N/C2=C\NC23CC4CC(CC(C4)C2)C3)cc1	–	275	58%
1190 nM	> 2500 nM	1690 nM	–	–	–	–	–	FC(F)(F)Oc1ccc(OC2=CC(c3ccc[nH]3)=N/C2=C\NC2CCCCCC2)cc1	–	–	–
89.7 nM	62.3 nM	68.8 nM	–	–	–	–	–	CC(C)CN/C=C1\N=C(c2ccc[nH]2)C=C1OCc1ccc(Cl)cc1	6960 nM	78	–
3.51 nM	3.82 nM	5.42 nM	114 µL/min/mg	76.8 µL/min/mg	18 min	157 µM	12.2 min	CC(C)OC1=CC(c2ccc[nH]2)=N/C1=C\NC1CCCCCC1.Cl	3580 nM	1020	43.6%
19 nM	17.3 nM	21.3 nM	85.1 µL/min/mg	16 µL/min/mg	> 60 min	15.8 µM	16.3 min	C1=C(OCc2ccccc2)/C(=C/NC2CCCCCC2)N=C1c1ccc[nH]1.Cl	3680 nM	194	59.5%
14.1 nM	8.56 nM	11.4 nM	–	–	–	–	–	Cl.Clc1ccc(COC2=CC(c3ccc[nH]3)=N/C2=C\NC23CC4CC(CC(C4)C2)C3)cc1	2250 nM	160	40%
121 nM	79.9 nM	97.8 nM	–	–	–	–	–	Clc1ccc(COC2=CC(c3ccc[nH]3)=N/C2=C\NC2CCCCCC2)cc1	8480 nM	70	–
354 nM	317 nM	276 nM	–	–	–	–	–	C1=C(Oc2ccccc2)/C(=C/NC2CCCCCC2)N=C1c1ccc[nH]1	–	–	–
49.5 nM	38.7 nM	26.3 nM	–	–	–	–	–	Cl.FC(F)(F)Oc1ccc(COC2=CC(c3ccc[nH]3)=N/C2=C\NC2CCCCCC2)cc1	5720 nM	116	72.3%
413 nM	350 nM	320 nM	–	–	–	–	–	CCCCCCCCCCCCN/C=C1\N=C(c2ccc[nH]2)C=C1OCc1ccc(OC(F)(F)F)cc1	–	–	–
0.497 nM	0.77 nM	0.715 nM	78.3 µL/min/mg	42.4 µL/min/mg	32.7 min	115 µM	17.7 min	CCOC1=CC(c2ccc[nH]2)=N/C1=C\NC12CC3CC(CC(C3)C1)C2.Cl	1070 nM	2150	24%
> 2500 nM	> 2500 nM	> 2500 nM	–	–	–	–	–	CC(C)CN/C=C1\N=C(c2ccc[nH]2)C=C1Oc1ccc(OC(F)(F)F)cc1	–	–	–
7.33 nM	5.27 nM	4.93 nM	38.8 µL/min/mg	14.4 µL/min/mg	> 60 min	178 µM	35.7 min	CCOC1=CC(c2ccc[nH]2)=N/C1=C\NC1CCCCCC1.Cl	2260 nM	–	8.5%
–	205 nM	335 nM	–	–	–	–	–	CC(C)CN/C=C1\N=C(c2ccc[nH]2)C=C1OCc1ccc(OC(F)(F)F)cc1	–	–	–
517 nM	681 nM	561 nM	–	–	–	–	–	Clc1ccc(OC2=CC(c3ccc[nH]3)=N/C2=C\NC2CCCCCC2)cc1	–	–	–
193 nM	242 nM	204 nM	–	–	–	–	–	Cl.FC(F)(F)Oc1ccc(OC2=CC(c3ccc[nH]3)=N/C2=C\NC23CC4CC(CC(C4)C2)C3)cc1	28200 nM	146	83%
–	0.632 nM	0.348 nM	39.4 µL/min/mg	26 µL/min/mg	53.2 min	77.7 µM	35.2 min	CCCOC1=CC(c2ccc[nH]2)=N/C1=C\NC1CCCCCC1.Cl	2890 nM	7960	75.5%
